For 19 molecules, EC50 results are on record in PubChem BioAssay AID434938 (Broad Institute, 2010).

Inconclusive results are not listed. Calls of active or inactive are those of the source.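 The calls were made as follows: active = EC50 no greater than ten times the top concentration tested; inconclusive = flat fit with inhibition between 30% and 70%, or an invalid poor-quality fit; inactive = EC50 beyond ten times the top concentration.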 A value given as a limit tells only on which side of the number the result lay.

The subject of the assay is S. cerevisiae GRE-lacZ reporter, Hsp90 function, luminescence. As to the kind of experiment: loss of Hsp90-dependent reporter luminescence – S. cerevisiae, mechanism study for C. albicans Hsp90 inhibitor project, SAR follow-up (AID 434938).
As for `CCOC(=O)c1c(-c2ccccc2Cl)cn2ccccc12`, the EC50 is 16.5 µM.

As to `O=C(Nc1nnc(CCc2ccccc2)s1)c1ccco1`, the EC50 is > 26 µM (inactive).

For the molecule `CCc1ccc2c(c1)/C(=C/C(=O)c1cccs1)C(=O)N2`, the EC50 was 2.91 µM.

`O=C(Nc1nnc(-c2ccc3c(c2)CCCC3)o1)c1ccc(Cl)cc1Cl`: the 50% effective concentration (EC50) was 2.16 µM.

Regarding `O=C(Nc1nc(-c2ccccn2)cs1)c1ccc(Br)s1`, the EC50 was 4.74 µM.

As to `CC(C)COCc1ccc(O)c2ncccc12`, the EC50 was > 26 µM (inactive).

Regarding `Clc1ccc2c(c1)C(c1cccs1)=NNC(c1cccnc1)=N2`, the 50% effective concentration (EC50) was 26.7 µM.

`O=C(Nc1nnc(SCc2ccc(Cl)cc2)s1)c1ccc2ccccc2n1`: the EC50 is > 26 µM (inactive).

Regarding `Cc1oc2c(F)c(F)c(F)c(F)c2c1S(=O)(=O)Nc1cccc(C(F)(F)F)c1`, the EC50 is 8.89 µM.

Regarding `Cc1ccc(/C=C/C(=O)c2ccccc(=O)c2O)cc1C`, the EC50 was 8.43 µM.

As to `O=C(Oc1c(Cl)cc(Cl)c2cccnc12)c1cccs1`, the EC50 was 12 µM.

Consider `COc1ccc(-n2nc(C(=O)NCC(=O)N3CCN(c4ccccc4)CC3)c3ccccc3c2=O)c(OC)c1`, for which the EC50 is > 26 µM (inactive).

On to `Cc1ccc(C(=O)c2coc3c2C(=O)C(=O)c2ccccc2-3)cc1`, for which the concentration for a half-maximal effect (EC50) was 7.66 µM.

As for `O=c1c2cc(Br)ccc2nc(-c2cccc(C(F)(F)F)c2)n1O`, the EC50 was 10.2 µM.

Consider `O=C(Nc1sc2c(c1C(=O)c1ccc(Cl)cc1)CCCC2)c1cccnc1`, for which the EC50 was 15.1 µM.

Take `COc1ccc(-c2nnc(NC(=O)c3ccc(F)cc3)o2)cc1`: the EC50 was > 26 µM (inactive).

Take `CCCC(=O)NC(c1ccccc1)c1ccc2cccnc2c1O` (centres undefined): the EC50 was > 26 µM (inactive).

As to `Cc1ccc(C(=O)Nc2cccc(-c3cn4ccccc4n3)c2)cc1`, the EC50 is > 26 µM (inactive).

As to `Cc1ccc(Nc2nc(N)c([N+](=O)[O-])c(N3CCC(C)CC3)n2)cc1C`, the concentration for a half-maximal effect (EC50) is 9.91 µM.
